Source: PMC3914206

Each compound was assayed against T1, panel of 442 kinases (Homo sapiens, UniProt O14976). Settings: Compound Concentration 10 µM.
T1 construct: purchased KINOMEscan
T1 sequence (O14976 1-1311): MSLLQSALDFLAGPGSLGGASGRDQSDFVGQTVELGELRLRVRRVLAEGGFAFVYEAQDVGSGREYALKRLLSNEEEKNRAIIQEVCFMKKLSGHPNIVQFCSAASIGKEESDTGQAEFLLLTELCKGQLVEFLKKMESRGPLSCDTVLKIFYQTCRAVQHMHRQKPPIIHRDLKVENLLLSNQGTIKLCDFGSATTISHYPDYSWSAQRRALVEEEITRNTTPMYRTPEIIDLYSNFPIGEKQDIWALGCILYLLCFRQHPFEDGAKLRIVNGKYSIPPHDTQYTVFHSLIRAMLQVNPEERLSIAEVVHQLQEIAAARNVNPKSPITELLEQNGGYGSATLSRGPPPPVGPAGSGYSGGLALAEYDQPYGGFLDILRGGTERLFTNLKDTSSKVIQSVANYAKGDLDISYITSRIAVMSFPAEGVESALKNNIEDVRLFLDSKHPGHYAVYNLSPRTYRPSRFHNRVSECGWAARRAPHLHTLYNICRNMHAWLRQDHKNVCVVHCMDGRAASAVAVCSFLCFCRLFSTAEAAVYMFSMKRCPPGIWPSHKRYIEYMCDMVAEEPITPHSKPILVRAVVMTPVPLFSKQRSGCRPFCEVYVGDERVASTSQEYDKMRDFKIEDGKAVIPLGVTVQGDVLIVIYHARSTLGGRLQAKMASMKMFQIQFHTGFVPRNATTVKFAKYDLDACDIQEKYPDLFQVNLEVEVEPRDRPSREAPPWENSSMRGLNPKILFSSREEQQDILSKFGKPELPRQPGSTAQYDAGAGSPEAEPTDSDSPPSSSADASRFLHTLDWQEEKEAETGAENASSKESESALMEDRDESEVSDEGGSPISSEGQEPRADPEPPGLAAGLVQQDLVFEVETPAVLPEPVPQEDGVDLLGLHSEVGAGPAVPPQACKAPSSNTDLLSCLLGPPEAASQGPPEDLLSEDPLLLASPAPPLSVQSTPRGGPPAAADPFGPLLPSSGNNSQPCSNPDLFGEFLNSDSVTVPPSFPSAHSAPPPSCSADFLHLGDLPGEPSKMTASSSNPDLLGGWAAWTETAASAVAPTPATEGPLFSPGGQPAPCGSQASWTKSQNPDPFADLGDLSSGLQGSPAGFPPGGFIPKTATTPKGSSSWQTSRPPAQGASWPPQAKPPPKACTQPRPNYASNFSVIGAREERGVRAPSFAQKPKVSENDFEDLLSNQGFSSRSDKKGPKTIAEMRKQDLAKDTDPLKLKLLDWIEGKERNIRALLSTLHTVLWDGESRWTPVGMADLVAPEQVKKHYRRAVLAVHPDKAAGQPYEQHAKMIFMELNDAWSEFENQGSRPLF
Format: binding
Excerpt: We assessed the selectivity of members of this scaffold using the KINOMEscan methodology across a near comprehensive panel of 442 kinases [[18,27]].

Compound | KINOMEscan: GAK
COc1cc(C(=O)N2CCC(N3CCN(C)CC3)CC2)ccc1Nc1ncc2c(n1)N(C1CCCC1)c1ccccc1C(=O)N2C [Compound 25, 11-cyclopentyl-2-((2-methoxy-4-(4-(4-methylpiperazin-1-yl)piperidine-1-carbonyl)phenyl)amino)-5-methyl-5H-benzo[e]pyrimido[5,4-b][1,4]diazepin-6(11H)-one] | 82
CCOc1cc(C(=O)N2CCC(N3CCN(C)CC3)CC2)ccc1Nc1ncc2c(n1)N(C1CCCC1)c1ccccc1C(=O)N2C [Compound 26] | 100
COc1cc(C(=O)N2CCC(N3CCN(C)CC3)CC2)ccc1Nc1ncc2c(n1)N1CCc3cccc(c31)C(=O)N2C [Compound 24] | 19
COc1cc(C(=O)N2CCC(N3CCN(C)CC3)CC2)ccc1Nc1ncc2c(n1)N(C)c1ccccc1C(=O)N2C [15 (LRRK2-IN-1)] | 16
